Measurements from PMC7570844, “Skin Damages—Structure Activity Relationship of Benzimidazole Derivatives Bearing a 5-Membered Ring System” (Molecules, 2020).
Converted amounts (≈) assume the structure as drawn. “And” between values parts separate entries of the source, which are not always exact repeats. Identical values can stand only once.

Key:
[1] = UV filtering parameters of compounds in solution (MeOH, 290-400 nm)
[2] = test system: herpes simplex virus-2 (G); assay: Antiviral activity in HEL cell cultures (CPE, MTS); format: cell-based; settings: Human alphaherpesvirus 2; Herpes simplex virus-2, HEL cells
Trichophyton tonsurans = assay: Antidermatophyte plaque growth inhibition; format: cell-based
[3] = test system: human pancreatic carcinoma cells (Mia Paca-2); assay: Cell proliferation inhibition
Human Coronavirus (229E) = assay: microbe, parasite or virus in culture; format: cell-based; settings: HEL, read-out: Antiviral EC50
[4] = DPPH radical scavenging test; settings: tested at 1 mg/mL; mean ± SEM
[5] = test system: herpes simplex virus-1 TK-KOS ACVr; assay: microbe, parasite or virus in culture; format: cell-based; settings: Human alphaherpesvirus 1, HEL, read-out: Antiviral EC50
Epidermophyton floccosum = assay: Antidermatophyte plaque growth inhibition; format: cell-based
[6] = test system: vesicular stomatitis virus; assay: microbe, parasite or virus in culture; format: cell-based; settings: HeLa, read-out: Antiviral EC50
Microsporum gypseum = assay: Antidermatophyte plaque growth inhibition; format: cell-based; settings: Nannizzia gypsea
[7] = UV filtering parameters of cosmetic formulation on PMMA plates (modified Diffey-Robson); format: physicochemical
[8] = Photostability of formulations, solar simulator; settings: formulation on PMMA plates
Adeno virus-2 = assay: Antiviral activity in HEL cell cultures (CPE, MTS); format: cell-based; settings: Adeno virus-2, HEL cells
[9] = test system: human T-lymphocyte cells (CEM); assay: Cell proliferation inhibition
[10] = test system: human melanoma cells (SK-Mel 5); assay: Cell proliferation inhibition
[11] = test system: Respiratory syncytial virus; assay: microbe, parasite or virus in culture; format: cell-based; settings: human respiratory syncytial virus, HeLa cells, read-out: Antiviral EC50
[12] = Ferric reducing antioxidant power (FRAP) test; settings: mean ± SEM
Coxsackie virus B4 = assay: Antiviral activity in HeLa cell cultures (CPE, MTS); format: cell-based; settings: Enterovirus B; Coxsackie virus B4, HeLa cells
[13] = test system: human embryonic lung (HEL) cell cultures
vaccinia virus = assay: microbe, parasite or virus in culture; format: cell-based; settings: Orthopoxvirus vaccinia, HEL, read-out: Antiviral EC50
[14] = test system: herpes simplex virus-1 (KOS); assay: Antiviral activity in HEL cell cultures (CPE, MTS); format: cell-based; settings: Human alphaherpesvirus 1, HEL cells
[15] = test system: human cervical carcinoma cells (HeLa); assay: Cell proliferation inhibition
HeLa cell cultures = settings: human
[16] = test system: M. gypseum, M. canis, T. mentagrophytes, T. tonsurans and E. floccosum; assay: Antidermatophyte activity, all five dermatophytes taken together; format: cell-based
[17] = test system: HEK293T (Normal Kidney Epithelial Cells); assay: Cell proliferation inhibition, non-cancer control cells; settings: Homo sapiens, HEK-293T
Microsporum canis = assay: Antidermatophyte plaque growth inhibition; format: cell-based
[18] = test system: Trichophyton mentagrophytes; assay: Antidermatophyte plaque growth inhibition; format: cell-based
[19] = read-out: Percent growth inhibition
[20] = after solar simulator irradiation

SMILES: c1coc(-c2nc3ccccc3[nH]2)c1 [Compound 11, 2-(furan-2-yl)-1H-benzimidazole]
- SPF [1]: 20.06±3.04
- UVA/UVB [1]: 0.3
- UVAPF [1]: 1.05±0.06
- λc (critical wavelength) [1]: 333 nm
- EC50 [2]: > 100 µM
- IC50 (Trichophyton tonsurans): 1.89 ± 0.22 µg/mL (≈ 10.3 µM)
- inhibition at 100 µg/mL (Trichophyton tonsurans; [19]): 94.7 ± 5.63%
- IC50 [3]: > 100 µM
- EC50 (Human Coronavirus (229E)): > 100 µM
- DPPH (% Inhibition) [4]: 15.46 ± 0.98%
- EC50 [5]: > 100 µM
- IC50 (Epidermophyton floccosum): 2.44 ± 0.05 µg/mL (≈ 13.2 µM)
- inhibition at 100 µg/mL (Epidermophyton floccosum; [19]): 97.9 ± 4.23%
- EC50 [6]: > 100 µM
- IC50 (Microsporum gypseum): 1.54 ± 0.02 µg/mL (≈ 8.36 µM)
- inhibition at 100 µg/mL (Microsporum gypseum; [19]): 99 ± 0.28%
- SPF ([7]; 1% in formulation): 6.84
- UVA/UVB ([7]; 1% in formulation): 0.69
- UVAPF ([7]; 1% in formulation): 1.94
- λc ([7]; 1% in formulation): 368 nm
- SPF ([7]; 2% in formulation): 10.39
- UVA/UVB ([7]; 2% in formulation): 0.13
- UVAPF ([7]; 2% in formulation): 1.53
- λc ([7]; 2% in formulation): 366 nm
- SPF ([7]; 3% in formulation): 11.15
- UVA/UVB ([7]; 3% in formulation): 0.18
- UVAPF ([7]; 3% in formulation): 1.82
- λc ([7]; 3% in formulation): 371 nm
- % SPFeff (residual in vitro SPF after irradiation) [8, 20]: less than 80%
- % UVA-PFeff (residual UVA-PF after irradiation) [8, 20]: less than 80%
- Photostability (in words) ([8]; irradiated with solar simulator, photostable if % SPF and % PF-UVA at least 80%): photoinstable
- EC50 (Adeno virus-2): > 100 µM
- IC50 [9]: > 100 µM
- IC50 [10]: > 100 µM
- EC50 [11]: > 100 µM
- FRAP [12]: 4462.64 µmolTE/g and 4462.64 ± 18.29 µmolTE/g
- EC50 (Coxsackie virus B4): > 100 µM
- Cytotoxic concentration [13]: > 100 µM
- EC50 (vaccinia virus): > 100 µM
- EC50 [14]: > 100 µM
- IC50 [15]: > 100 µM
- Cytotoxic concentration (HeLa cell cultures): > 100 µM
- Activity on dermatophytes (in words) ([16]; 100 µg/mL): fungicide activity
- IC50 ([16]; read-out: IC50 range over the five dermatophytes): 0.97 to 3.8 µg/mL (≈ 5.27 to 20.6 µM)
- inhibition at 100 µg/mL ([16]; read-out: Percentage of growth inhibition over the five dermatophytes): ~100%
- IC50 [17]: > 100 µM
- IC50 (Microsporum canis): 1.58 ± 0.06 µg/mL (≈ 8.58 µM)
- inhibition at 100 µg/mL (Microsporum canis; [19]): 98.3 ± 2.03%
- IC50 [18]: 1.61 ± 0.1 µg/mL (≈ 8.74 µM)
- inhibition at 100 µg/mL [18, 19]: 97.2 ± 4.53%
